This note sets out measurements from patent US6521659B2, “Compositions containing a substituted indolealkanoic acid and an angiotensin converting enzyme inhibitor” (Institute for Pharmaceutical Discovery, LLC, priority 2000, dated 2003).

The subject of test [1] is rat aortic ring. The test is described as follows: Rat aortic ring assay (anti-angiogenic activity). The format is cell-based. Here is the method:
Final concentration of DMSO in all wells is 1%.
Statistical analysis conducted with Kruskal-Wallis Test and Dunns multiple comparisons

Test [2] relates to diabetic (db/db) mice. Put plainly: Blood glucose lowering in diabetic (db/db) mice. Particulars: for Blood glucose: n = 12. The format is in vivo, mouse. As to the method: The mice are obese, extremely hyperglycemic and also hyperinsulinemic.
Male db/db mice (8 weeks old) were obtained from Jackson Laboratories and were allowed to acclimate for 1 week before the experiment commenced. A sample of blood was collected from the tail after which plasma glucose was isolated by centrifigation and the glucose concentration was measured in the plasma enzymatically on the COBAS automated clinical analyzer equipped with a glucose kit that utilized hexokinas to quantitate the amount of glucose in a sample (Roche Diagnostic Systems, kit #47382). Mice with the lowest plasma glucose values were removed from the study and the remaining mice were randomized according to their individual plasma glucose values into 3 treatment groups (n=12 per group), control untreated db/db mice, 100 mg/kg/d compound treated db/db mice and 300 mg/kg/d compound treated db/db mice.
Treatment with the compound was carried out for 4 weeks during which time blood glucose levels were measured weekly from the tail using the One Touch II blood glucose meter (Lifescan, Inc). The blood glucose values of mice in the compound treated groups was compared to the blood glucose values of mice from the control untreated group by an analysis of variance followed by Dunett's Comparison Test (one-tailed).

Test [3] relates to STZ treated diabetic minipigs. Put plainly: Wound healing in STZ treated diabetic minipigs. The format is in vivo, minipig. Particulars: STZ diabetic minipigs with wounds, compared with untreated control STZ diabetic minipigs. Here is the method: STZ treated diabetic minipigs having various wounds are administered the compound of Example 3. These animals are compared with control STZ diabetic minipigs also having wounds but that are not treated with the compound. […] Accordingly, the compounds of the invention are capable of promoting wound healing in diabetic mammals.

Test [4] relates to streptozotocin-induced diabetic rats. The test is described as follows: Serum/plasma triglyceride levels in streptozotocin-induced diabetic rats. The test is classed as in vivo, rat. Particulars: 10 mg/kg/day. Here is the method:
Tests are conducted to determine the effect of compounds on serum triglyceride levels in streptozotocin-induced diabetic rats.
Control animals receive citrate buffer.
Two hours after STZ injection, food is returned.
The nondiabetic and diabetic control groups are administered vehicle.

Each structure is given as a SMILES string. Like-named read-outs stand apart in the source and are kept apart here.

In the case of `O=C(O)Cn1cc(Cc2nc3c(F)c(F)cc(F)c3s2)c2ccccc21` [Example 3, 3-(4,5,7-Trifluorobenzothiazol-2-yl)methyl-indole-N-acetic Acid], the “Linear Microvascular Growth” value in test [1] is 1.97 ± 0.66, n = 5 mm; in test [1] (50 µM), 2.31 ± 0.71, n = 5 mm; in test [1] (Prevention (Days 1-6), 50 micromolar, mean ± SD, n = 6), 1.46 ± 0.48, n = 6 mm. Besides, the Blood glucose in test [2] (100 mg/kg/d in diet, Week 0, mean ± SD) came to 323 ± 79 mg/dL; in test [2] (100 mg/kg/d in diet, Week 2, mean ± SD), 284 ± 75 mg/dL; in test [2] (100 mg/kg/d in diet, Week 3, mean ± SD), 258 ± 60 mg/dL; in test [2] (100 mg/kg/d in diet, Week 4, mean ± SD), 303 ± 79 mg/dL; in test [2] (300 mg/kg/d in diet, Week 0, mean ± SD) it was 313 ± 52 mg/dL; in test [2] (300 mg/kg/d in diet, Week 2, mean ± SD) it was 240 ± 85 mg/dL. For the same compound, the Blood glucose was determined as 197 ± 77 mg/dL in test [2] (300 mg/kg/d in diet, Week 3, mean ± SD) and 207 ± 77 mg/dL in test [2] (300 mg/kg/d in diet, Week 4, mean ± SD). In test [2] (100 mg/kg/d, after four weeks), the “mean percent change in glucose with drug treatment (lowering)” value turned out to be 12%. For the same compound, the “mean percent change in glucose with drug treatment (lowering of blood glucose)” value in test [2] (300 mg/kg/d, after four weeks) was determined as 40%. For the same compound, the “degree of wound healing” value in test [3] is recorded as “significant increase in the degree of wound healing”. For the same compound, the “Triglyceride lowering compared to diabetic” value in test [4] (STZ diabetic rats, 10 mg/kg/d by gavage) worked out at 68%. In test [4] (po, 4 h), this compound gave a Plasma triglycerides of 149 ± 29 mg/dL.
